Consider one compound from US11185516B2 (Laboratorios Silanes S.A. DE C.V., priority 2016, dated 2021).

Structures are written as SMILES.

One data set relates to IRS2−/− (KO) mice. In words: Fasting glycemia and insulinemia in female IRS2−/− mice. It counts as in vivo, mouse. The settings on record: 4 weeks. From the text:
Insulin resistance characterizes type 2 diabetes, obesity, and the metabolic syndrome. Thus, insulin sensitivity is a major therapeutic objective for these metabolic diseases. Insulin receptor substrate (IRS) proteins regulate the physiological actions of insulin upon binding to the receptor. Specific deletion of IRS2 in mice produces diabetes due to a developmental reduction of the pancreatic β-cell mass and the inability of existing β-cells to expand in response to peripheral insulin resistance. Additionally, IRS2-deficiency in mice causes hepatic insulin resistance concurrent with failed suppression of hepatic glucose production. While male IRS2−/− mice often die of diabetic complications by 12 weeks of age, females IRS2−/− mice develop a milder form of diabetes and many live up to 6 months. The observation that female IRS2−/− mice eat more than controls led to the discovery that this molecule is critical for hypothalamic regulation of food intake.
The mean glycemic values are represented per group (n=3) pre-treatment (black bars) and post-treatment (gray bars) along with their standard deviations. […] The fasting serum insulin levels taken pre-treatment (black bars) and post-treatment (gray bars) were determined using a kit (Millipore), following the manufacturer's instructions. Mean values and standard deviations are presented for each group (n=3) (FIG. 12D).
Due to peripheral resistance to insulin, the IRS2−/− mice also develop hyperinsulinemia.

The next data set relates to VAPA and VAMPs. In words: Colocalization of VAPA and VAMPs (FIG. 18).
The next data set has as its system IRS2 knockout mice. The settings on record: 100 mg/kg/day, 4 weeks. From the text: Insulin receptor substrate 2 (IRS2) is a cytoplasmic signaling molecule that mediates effects of insulin, insulin-like growth factor 1, and other cytokines by acting as a molecular adaptor between diverse receptor tyrosine kinases and downstream effectors. Mice lacking IRS2 (e.g., IRS2 knockout mice) have a diabetic phenotype and increased serum leptin levels. Leptin is a hormone made by adipose cells that regulates appetite and inhibits hunger.
The levels of fasting serum leptin, at the beginning and at the end of the treatments, were determined with a kit (Sigma) following the instructions by the manufacturer.

The test system of a further data set is AS160. In words: In vitro AS160 phosphorylation in the presence of GPBP, AMPK and AKT. It counts as biochemical. As to conditions: 5 mM, with FLAG-GPBP, AKT, AMPK. The procedure: The reactions (25 μL) were carried out at 30° C., and stirred (350 rpm) for 15 min. Then, they were stopped with a reducing loading buffer, heated (95° C., 2 min), and analyzed using electrophoresis, electrotransfer, and autoradiography.

Another data set relates to wild type controls (WT). As to conditions: 100 mg/kg/day, 8 weeks, fasting. The procedure: At the 8-week treatment time point, there were 8 mice in each of the WT groups, 6 mice in the KO IRS2 untreated control group, 7 mice in the KO IRS2 SLN1 treated group, and 8 mice in the KO SLN2 treated group. Blood was collected at the time of sacrifice and used to measure TG under fasting conditions. […] Statistical differences between the experimental groups shown in FIG. 21 were assessed by Student's T test. P value of <0.05 is indicated by *.

Data set [1] has as its system proIL-1β, TNFα, iNOS, IL-6, MCP-1 and IL-12. The data set can be described thus: Inflammation marker expression in palmitate-stimulated L1 adipocytes (RT-qPCR). It counts as cell-based. The settings on record: 10 mM, palmitate 500 μM, 24 h. The procedure: Palmitate is a saturated fatty acid that simulates an experimental obese state. It can be used as a pro-inflammatory stimulant for cytokines such as proIL-1β, TNFα, iNOS, IL-6, MCP-1 and IL-12.
Next, the relative expression of inflammation markers was analyzed by RT and qPCR using HPRT-1 as a normalizer and the untreated cell expression levels as a reference (for MCP-1 and IL-12) or those treated palmitate. After the treatments, culture media were collected and subsequently analyzed, cells were washed with PBS, and RNA was extracted (illustra RNAspin Mini, GE Healthcare) and reverse transcribed (High Capacity cDNA Reverse Transcription Kit, Life Technologies). The expression of the genes that were the object of the study was analyzed by qPCR using specific probes (TaqMan® Gene Expression Assays, Life Technologies). The relative expression (RQ), represented in the figure, was calculated by the ΔΔCt method.
A general note: Real-time PCR tracks product formation cycle by cycle.

The next data set deals with HeLa cells. As to conditions: 10 mM, 20 h. The procedure:
After the incubation, the cells were washed with PBS, collected and washed again, then fixed with methanol:acetone (50:50) for 16 h at −20° C., and stained with 10 μg/mL of propidium iodide, 0.01 mg/mL RNase, 0.01% sodium citrate, for 20 min at 37° C. in darkness. The stained cells were analyzed by flow cytometry using a BD FACS cell sorter and BD FACSuite™ software.

For the compound `CN(C)C(=N)NC(=N)N` [Metformin glycinate, N,N-dimethylimidodicarbonimidic diamide glycinate], the fasting glycemia post-treatment entry with IRS2−/− (KO) mice (100 mg/kg/day with food, 10-12 weeks old) is “significantly lower than those pre-treatments”. Moreover, in the data set on IRS2−/− (KO) mice (100 mg/kg/day), the fasting insulin levels result was “lowered the fasting insulin levels”. Moreover, the “colocalization of VAPA and VAMPS” value in the data set with VAPA and VAMPs is listed as “reduced colocalization”. In the data set on IRS2 knockout mice, the “reduction of fasting serum leptin levels compared to metformin hydrochloride” value is given as “greater reduction of fasting serum leptin levels”. In addition, the “fasting serum leptin levels” value with IRS2 knockout mice (end vs beginning of treatment) is “reduced fasting serum leptin levels”. The “phosphorylation of AS160” value in the data set on AS160 is recorded as “increased”. The “serum triglycerides compared to untreated or SLN1-treated control mice” value with wild type controls (WT) is on record as “lower”. Also, under “620 mg BID vs metformin hydrochloride 1000 mg BID”, the “Tmax, comparative analysis” value is “statistically significant differences”. Also, the “bioequivalence (90% C.I. in magnitude and velocity)” value (620 mg against metformin hydrochloride 500 mg) is “within the theoretical ranges of bioequivalence”. Also, the “pharmacokinetic parameters of test vs reference (metformin hydrochloride)” value (Stage B, multiple doses) is recorded as “similar”. In data set [1], the “anti-inflammatory effectiveness, comparison of the two salts” value was “significantly more effective than metformin hydrochloride” and the “inflammatory response of palmitate-stimulated adipocytes” value was “attenuated the inflammatory response”. Moreover, the “cancer cells entering G1 phase cell cycle arrest” value in the data set on HeLa cells is reported as “about 56%”.
